This passage reports inhibition results from PubChem BioAssay AID602323 (The Scripps Research Institute Molecular Screening Center, 2012).

What all share (experiment): serine hydrolase inhibition in mouse brain membranes, late-stage follow-up, selectivity assay for DAGLb inhibitor project, biochemical, gel-based competitive ABPP, fluorescence, set 2 (AID 602323)
Experiment [1] addresses Monoacylglycerol lipase ABHD6 (Mus musculus) (UniProt Q8R2Y0). Particulars: mouse brain membrane, at 1 µM, hits give high values.
The target of experiment [2] is Platelet-activating factor acetylhydrolase (Mus musculus) (UniProt Q60963). Particulars: mouse brain membrane, PLA2G7, at 1 µM, hits give high values.
The target of experiment [3] is Diacylglycerol lipase-beta (Mus musculus) (UniProt Q91WC9). As to conditions: mouse brain membrane, DAGLb, at 1 µM, hits give high values.

A word on the inhibition: it is how much of the control response was suppressed.

Structures are written as SMILES. Active and inactive are the calls of the source. How the calls were made is not given here.

Chain of Monoacylglycerol lipase ABHD6 (Mus musculus) (Q8R2Y0 whole entry, looked up): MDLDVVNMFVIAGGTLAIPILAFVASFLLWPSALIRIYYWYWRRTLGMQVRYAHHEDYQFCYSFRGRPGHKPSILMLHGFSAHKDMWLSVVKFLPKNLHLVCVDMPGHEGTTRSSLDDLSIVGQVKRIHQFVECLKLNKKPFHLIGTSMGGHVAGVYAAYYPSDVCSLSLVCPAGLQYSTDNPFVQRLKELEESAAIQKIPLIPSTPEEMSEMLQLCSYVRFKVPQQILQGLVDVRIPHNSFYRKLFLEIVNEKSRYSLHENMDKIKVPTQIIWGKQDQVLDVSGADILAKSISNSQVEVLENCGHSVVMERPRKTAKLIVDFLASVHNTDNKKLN
Chain of Diacylglycerol lipase-beta (Mus musculus) (Q91WC9 whole entry, looked up): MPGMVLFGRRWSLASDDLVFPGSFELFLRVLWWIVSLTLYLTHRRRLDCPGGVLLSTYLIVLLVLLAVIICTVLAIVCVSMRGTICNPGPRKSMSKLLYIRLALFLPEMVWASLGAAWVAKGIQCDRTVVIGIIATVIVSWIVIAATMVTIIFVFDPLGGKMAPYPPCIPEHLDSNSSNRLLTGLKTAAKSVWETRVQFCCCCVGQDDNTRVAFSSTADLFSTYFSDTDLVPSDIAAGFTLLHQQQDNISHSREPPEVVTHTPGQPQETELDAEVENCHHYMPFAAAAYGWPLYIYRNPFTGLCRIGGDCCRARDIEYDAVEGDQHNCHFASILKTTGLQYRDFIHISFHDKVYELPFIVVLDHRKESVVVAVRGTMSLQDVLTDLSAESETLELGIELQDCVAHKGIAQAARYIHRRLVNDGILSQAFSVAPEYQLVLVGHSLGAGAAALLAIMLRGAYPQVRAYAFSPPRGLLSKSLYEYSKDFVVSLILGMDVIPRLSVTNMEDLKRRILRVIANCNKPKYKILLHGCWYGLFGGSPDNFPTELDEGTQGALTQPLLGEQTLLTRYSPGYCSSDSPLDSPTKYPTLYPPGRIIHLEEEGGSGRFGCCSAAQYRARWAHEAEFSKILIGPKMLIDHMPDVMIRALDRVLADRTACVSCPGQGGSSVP
Chain of Platelet-activating factor acetylhydrolase (Mus musculus) (Q60963 whole entry, looked up): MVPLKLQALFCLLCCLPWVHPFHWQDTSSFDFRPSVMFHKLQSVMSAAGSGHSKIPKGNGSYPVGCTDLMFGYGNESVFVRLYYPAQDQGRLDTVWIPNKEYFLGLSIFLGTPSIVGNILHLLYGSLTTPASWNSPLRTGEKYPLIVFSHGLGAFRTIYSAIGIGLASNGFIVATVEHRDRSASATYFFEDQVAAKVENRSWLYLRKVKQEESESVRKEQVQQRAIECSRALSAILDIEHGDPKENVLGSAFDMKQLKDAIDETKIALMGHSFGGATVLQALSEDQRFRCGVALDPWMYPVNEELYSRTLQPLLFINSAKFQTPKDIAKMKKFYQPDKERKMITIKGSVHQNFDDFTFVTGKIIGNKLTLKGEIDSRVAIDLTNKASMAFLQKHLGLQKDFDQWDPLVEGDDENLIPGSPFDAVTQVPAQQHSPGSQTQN

On to `O=C(N1CCCCC1Cc1ccccc1)n1cc(-c2ccccc2-c2ccccc2)nn1` (stereo not given), for which the inhibition in experiment [1] is 95%; in experiment [2], 40% (inactive); in experiment [3], 75%.
On the same counts, the results for `COc1ccccc1-c1ccc(-c2cn(C(=O)N3CCCCC3Cc3ccccc3)nn2)cc1` (stereo not given) are 95%, 25% (inactive) and 85%.
Regarding `O=C(N1CCCCC1Cc1ccccc1)n1cc(-c2ccc(-c3ccccc3CO)cc2)nn1` (stereo not given), the inhibition in experiment [1] was 95%; in experiment [2], 20% (inactive); in experiment [3], 90%.
On the same counts, the results for `O=C(N1CCCCC1Cc1ccccc1)n1cc(-c2ccc(-c3ccccc3)cc2)nn1` (stereo not given) are 95%, 40% (inactive) and 80%.
For `O=C(c1ccc(-c2ccc(-c3cn(C(=O)N4CCCCC4Cc4ccccc4)nn3)cc2)cc1)N1CCCCC1` (stereo not given), in that order: 90%, 0% (inactive) and 20% (inactive).
On the same counts, the results for `O=C(N1CCCCC1Cc1ccccc1)n1cc(-c2ccc(-c3ccccc3OC(F)(F)F)cc2)nn1` (stereo not given) are 95%, 60% and 80%.
`O=C(N1CCCCC1Cc1ccccc1)n1cc(-c2ccc(-c3cccc(C(F)(F)F)c3)cc2)nn1` (stereo not given): the inhibition is 95% in experiment [1], 25% (inactive) in experiment [2] and 45% (inactive) in experiment [3].
On the same counts, the results for `Cc1ccccc1-c1ccc(-c2cn(C(=O)N3CCCCC3Cc3ccccc3)nn2)cc1` (stereo not given) are 90%, 80% and 80%.
For `O=C(N1CCCCC1Cc1ccccc1)n1cc(-c2ccc(-c3cccc(CO)c3)cc2)nn1` (stereo not given), in that order: 90%, 0% (inactive) and 25% (inactive).
For `O=C(N1CCCCC1Cc1ccccc1)n1cc(-c2ccc(Br)cc2)nn1` (stereo not given), in that order: 98%, 95% and 85%.
For the compound `O=C(N1CCCCC1Cc1ccccc1)n1cc(-c2ccc(-c3ccccc3Cl)cc2)nn1` (stereo not given), the inhibition in experiment [1], in experiment [2] and in experiment [3] was 90% throughout.
As to `O=C(N1CCCCC1Cc1ccccc1)n1cc(-c2ccc(-c3ccc(OC(F)(F)F)cc3)cc2)nn1` (stereo not given), the inhibition is 90% in experiment [1], 50% in experiment [2] and 20% (inactive) in experiment [3].
On the same counts, the results for `O=C(N1CCCCC1Cc1ccccc1)n1ncc(C(O)(c2ccccc2)c2ccccc2)n1` (stereo not given) are 90%, 0% (inactive) and 80%.
For `CC(C)(C)OC(=O)NCCCCCN(CCc1ccccc1)C(=O)n1cc(-c2ccc(OC(F)(F)F)cc2)nn1`, in that order: 90%, 95% and 95%.
For `CC(C)CN(CCc1ccccc1)C(=O)n1cc(-c2ccc(OC(F)(F)F)cc2)nn1`, in that order: 95%, 95% and 90%.
Regarding `O=C(N1CCCCC1Cc1ccccc1)n1ncc(-c2ccc(OC(F)(F)F)cc2)n1` (stereo not given), the inhibition is 70% in experiment [1], 90% in experiment [2] and 50% in experiment [3].
For `O=C(N1CCCCC1Cc1ccccc1)n1cc(-c2ccc(OC(F)(F)F)cc2)nn1` (stereo not given), in that order: 90%, 90% and 90%.
In the case of `O=C(N1CCCCC1Cc1ccccc1)n1cc(-c2ccc(-c3ccccc3C(F)(F)F)cc2)nn1` (stereo not given), the inhibition in experiment [1] is 90%; in experiment [2], 25% (inactive); in experiment [3], 75%.
In the case of `O=C(N1CCCCC1Cc1ccccc1)n1cc(-c2cc(F)cc(F)c2)nn1` (stereo not given), the inhibition in experiment [1] was 98%; in experiment [2] it was 95%; in experiment [3] it was 85%.
On the same counts, the results for `O=C(N1CCCCC1Cc1ccccc1)n1cc(-c2ccc(-c3ccc4c(c3)OCO4)cc2)nn1` (stereo not given) are 90%, 20% (inactive) and 25% (inactive).
As to `O=C(N1CCCCC1Cc1ccccc1)n1cc(-c2ccc(-c3ccc(C(F)(F)F)cc3)cc2)nn1` (stereo not given), the values for the inhibition in experiment [1], in experiment [2] and in experiment [3] were 80%, 50% and 25% (inactive), respectively.
On the same counts, the results for `O=C(N1CCCCC1Cc1ccccc1)n1cc(-c2ccc(-c3ccoc3)cc2)nn1` (stereo not given) are 90%, 45% (inactive) and 60%.
For `O=C(N(CCc1ccccc1)Cc1ccco1)n1cc(-c2ccc(OC(F)(F)F)cc2)nn1`, in that order: 95%, 95% and 95%.
For `O=C(c1ccc(-c2cn(C(=O)N3CCCCC3Cc3ccccc3)nn2)cc1)N1CCCCC1` (stereo not given), in that order: 95%, 30% (inactive) and 95%.
Turning to `O=C(N1CCCCC1Cc1ccccc1)n1cc(-c2cccc(-c3ccccc3)c2)nn1` (stereo not given), the inhibition in experiment [1] is 95%; in experiment [2] it was 30% (inactive); in experiment [3] it was 75%.
